Reference: patent US9738634B2, “Heterocyclic amide compound and herbicide” (SYNGENTA PARTICIPATIONS AG, priority 2013, dated 2017)

Tests used:
Format in all cases: in vivo
Conditions in all cases: treatment dosage 320 g/ha
fig-leafed goosefoot [1] = test: Test Example 4: weedkilling efficacy by foliar treatment; M: fig-leafed goosefoot
How it was run: (§1)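 Seeds are spot-sown into sterilized diluvial soil and covered with about 1.5 cm of soil. After 14 days' greenhouse growth at 25 to 30° C, plants are sprayed on stems and leaves with diluted emulsion at the stated g/ha rate, then scored at 3 weeks.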

black-grass [2] = test: Test Example 4: weedkilling efficacy by foliar treatment; H: black-grass
How it was run: as §1

Indian mallow [3] = test: Test Example 4: weedkilling efficacy by foliar treatment; K: Indian mallow
How it was run: as §1

beet [4] = test: Test Example 4: foliar treatment, effect on crop; f: beet
How it was run: as §1

transplanted rice = test: Test Example 1: preemergent weed treatment in the submerged state, effect on crop; a: transplanted rice
How it was run: (§2)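 Pots of alluvial soil were flooded to a 4 cm depth. Mixed weed seeds were sown and 2.5 leaf-stage rice seedlings transplanted. On sowing day, water-diluted emulsion was applied to the water surface (dose in g/ha). After 3 weeks at 25–30 °C, effects were rated.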

barnyard grass [5] = test: Test Example 3: weedkilling efficacy through soil treatment; F: barnyard grass
How it was run: (§3)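 Crop and weed responses were judged three weeks after a uniform surface spray of the water-diluted emulsion at the given g/ha rate. Seeds sat beneath about 1.5 cm of sterilized diluvial soil, and boxes stood in a greenhouse at 25 to 30° C.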

soybean [6] = test: Test Example 4: foliar treatment, effect on crop; d: soybean
How it was run: as §1

directly sown rice [7] = test: Test Example 4: foliar treatment, effect on crop; b: directly sown rice
How it was run: as §1

crabgrass [8] = test: Test Example 4: weedkilling efficacy by foliar treatment; D: crabgrass
How it was run: as §1

directly sown rice [9] = test: Test Example 3: soil treatment, effect on crop; b: directly sown rice
How it was run: as §3

soybean [10] = test: Test Example 3: soil treatment, effect on crop; d: soybean
How it was run: as §3

redroot pigweed [11] = test: Test Example 3: weedkilling efficacy through soil treatment; L: redroot pigweed
How it was run: as §3

fig-leafed goosefoot [12] = test: Test Example 3: weedkilling efficacy through soil treatment; M: fig-leafed goosefoot
How it was run: as §3

beet [13] = test: Test Example 3: soil treatment, effect on crop; f: beet
How it was run: as §3

Italian ryegrass [14] = test: Test Example 3: weedkilling efficacy through soil treatment; I: Italian ryegrass
How it was run: as §3

black-grass [15] = test: Test Example 3: weedkilling efficacy through soil treatment; H: black-grass
How it was run: as §3

corn [16] = test: Test Example 3: soil treatment, effect on crop; c: corn
How it was run: as §3

wheat [17] = test: Test Example 3: soil treatment, effect on crop; e: wheat
How it was run: as §3

common wind-grass [18] = test: Test Example 3: weedkilling efficacy through soil treatment; J: common wind-grass
How it was run: as §3

oval-leafed pondweed [19] = test: Test Example 1: weedkilling efficacy, preemergent weed treatment in the submerged state; C: oval-leafed pondweed
How it was run: as §2

chickweed [20] = test: Test Example 3: weedkilling efficacy through soil treatment; N: chickweed
How it was run: as §3

oval-leafed pondweed [21] = test: Test Example 2: weedkilling efficacy, growth period weed treatment in the submerged state; C: oval-leafed pondweed
How it was run: (§4)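 Weeds treated at the 1-2 leaf stage by application of diluted emulsion onto floodwater (4 cm depth, alluvial soil) at specified g/ha. Grown in greenhouse at 25 to 30° C; herbicidal effect rated three weeks after treatment.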

wild oat [22] = test: Test Example 4: weedkilling efficacy by foliar treatment; G: wild oat
How it was run: as §1

catchweed [23] = test: Test Example 4: weedkilling efficacy by foliar treatment; O: catchweed
How it was run: as §1

birds-eye speedwell = test: Test Example 3: weedkilling efficacy through soil treatment; p: birds-eye speedwell
How it was run: as §3

barnyard grass [24] = test: Test Example 1: weedkilling efficacy, preemergent weed treatment in the submerged state; A: barnyard grass
How it was run: as §2

chickweed [25] = test: Test Example 4: weedkilling efficacy by foliar treatment; N: chickweed
How it was run: as §1

wild oat [26] = test: Test Example 3: weedkilling efficacy through soil treatment; G: wild oat
How it was run: as §3

common wind-grass [27] = test: Test Example 4: weedkilling efficacy by foliar treatment; J: common wind-grass
How it was run: as §1

wheat [28] = test: Test Example 4: foliar treatment, effect on crop; e: wheat
How it was run: as §1

crabgrass [29] = test: Test Example 3: weedkilling efficacy through soil treatment; D: crabgrass
How it was run: as §3

rapeseed [30] = test: Test Example 3: soil treatment, effect on crop; g: rapeseed
How it was run: as §3

green foxtail [31] = test: Test Example 3: weedkilling efficacy through soil treatment; E: green foxtail
How it was run: as §3

barnyard grass [32] = test: Test Example 2: weedkilling efficacy, growth period weed treatment in the submerged state; A: barnyard grass
How it was run: as §4

Italian ryegrass [33] = test: Test Example 4: weedkilling efficacy by foliar treatment; I: Italian ryegrass
How it was run: as §1

bulrush [34] = test: Test Example 2: weedkilling efficacy, growth period weed treatment in the submerged state; B: bulrush
How it was run: as §4

corn [35] = test: Test Example 4: foliar treatment, effect on crop; c: corn
How it was run: as §1

Indian mallow [36] = test: Test Example 3: weedkilling efficacy through soil treatment; K: Indian mallow
How it was run: as §3

catchweed [37] = test: Test Example 3: weedkilling efficacy through soil treatment; O: catchweed
How it was run: as §3

green foxtail [38] = test: Test Example 4: weedkilling efficacy by foliar treatment; E: green foxtail
How it was run: as §1

bulrush [39] = test: Test Example 1: weedkilling efficacy, preemergent weed treatment in the submerged state; B: bulrush
How it was run: as §2

redroot pigweed [40] = test: Test Example 4: weedkilling efficacy by foliar treatment; L: redroot pigweed
How it was run: as §1

rapeseed [41] = test: Test Example 4: foliar treatment, effect on crop; g: rapeseed
How it was run: as §1

barnyard grass [42] = test: Test Example 4: weedkilling efficacy by foliar treatment; F: barnyard grass
How it was run: as §1

CC1=C(c2ccccc2)C(=O)N(C(C)(C)C(=O)Nc2ccc(F)cn2)CO1 [B-2-26]
M (fig-leafed goosefoot) weedkilling efficacy grade (fig-leafed goosefoot [1]): 4 (weed kill ratio 70% or more, less than 90%) | H (black-grass) weedkilling efficacy grade (black-grass [2]): 4 (weed kill ratio 70% or more, less than 90%) | K (Indian mallow) weedkilling efficacy grade (Indian mallow [3]): 3 (weed kill ratio 40% or more, less than 70%) | f (beet) effect on crop grade (beet [4]): 4 (weed kill ratio 70% or more, less than 90%) | a (transplanted rice) effect on crop grade (transplanted rice): 0 (weed kill ratio 5% or less (practically no effect)) | F (barnyard grass) weedkilling efficacy grade (barnyard grass [5]): 5 (weed kill ratio 90% or more, (practically complete withering)) | d (soybean) effect on crop grade (soybean [6]): 4 (weed kill ratio 70% or more, less than 90%) | b (directly sown rice) effect on crop grade (directly sown rice [7]): 1 (weed kill ratio 5% or more, less than 20%) | D (crabgrass) weedkilling efficacy grade (crabgrass [8]): 3 (weed kill ratio 40% or more, less than 70%) | b (directly sown rice) effect on crop grade (directly sown rice [9]): 2 (weed kill ratio 20% or more, less than 40%) | d (soybean) effect on crop grade (soybean [10]): 0 (weed kill ratio 5% or less (practically no effect)) | L (redroot pigweed) weedkilling efficacy grade (redroot pigweed [11]): 4 (weed kill ratio 70% or more, less than 90%) | M (fig-leafed goosefoot) weedkilling efficacy grade (fig-leafed goosefoot [12]): 4 (weed kill ratio 70% or more, less than 90%) | f (beet) effect on crop grade (beet [13]): 0 (weed kill ratio 5% or less (practically no effect)) | I (Italian ryegrass) weedkilling efficacy grade (Italian ryegrass [14]): 5 (weed kill ratio 90% or more, (practically complete withering)) | H (black-grass) weedkilling efficacy grade (black-grass [15]): 5 (weed kill ratio 90% or more, (practically complete withering)) | c (corn) effect on crop grade (corn [16]): 0 (weed kill ratio 5% or less (practically no effect)) | e (wheat) effect on crop grade (wheat [17]): 0 (weed kill ratio 5% or less (practically no effect)) | J (common wind-grass) weedkilling efficacy grade (common wind-grass [18]): 5 (weed kill ratio 90% or more, (practically complete withering)) | C (oval-leafed pondweed) weedkilling efficacy grade (oval-leafed pondweed [19]): 5 (weed kill ratio 90% or more, (practically complete withering)) | N (chickweed) weedkilling efficacy grade (chickweed [20]): 3 (weed kill ratio 40% or more, less than 70%) | C (oval-leafed pondweed) weedkilling efficacy grade (oval-leafed pondweed [21]): 5 (weed kill ratio 90% or more, (practically complete withering)) | G (wild oat) weedkilling efficacy grade (wild oat [22]): 3 (weed kill ratio 40% or more, less than 70%) | O (catchweed) weedkilling efficacy grade (catchweed [23]): 3 (weed kill ratio 40% or more, less than 70%) | P (birds-eye speedwell) weedkilling efficacy grade (birds-eye speedwell): 0 (weed kill ratio 5% or less (practically no effect)) | A (barnyard grass) weedkilling efficacy grade (barnyard grass [24]): 5 (weed kill ratio 90% or more, (practically complete withering)) | N (chickweed) weedkilling efficacy grade (chickweed [25]): 3 (weed kill ratio 40% or more, less than 70%) | G (wild oat) weedkilling efficacy grade (wild oat [26]): 1 (weed kill ratio 5% or more, less than 20%) | J (common wind-grass) weedkilling efficacy grade (common wind-grass [27]): 5 (weed kill ratio 90% or more, (practically complete withering)) | e (wheat) effect on crop grade (wheat [28]): 0 (weed kill ratio 5% or less (practically no effect)) | D (crabgrass) weedkilling efficacy grade (crabgrass [29]): 5 (weed kill ratio 90% or more, (practically complete withering)) | g (rapeseed) effect on crop grade (rapeseed [30]): 0 (weed kill ratio 5% or less (practically no effect)) | E (green foxtail) weedkilling efficacy grade (green foxtail [31]): 5 (weed kill ratio 90% or more, (practically complete withering)) | A (barnyard grass) weedkilling efficacy grade (barnyard grass [32]): 5 (weed kill ratio 90% or more, (practically complete withering)) | I (Italian ryegrass) weedkilling efficacy grade (Italian ryegrass [33]): 3 (weed kill ratio 40% or more, less than 70%) | B (bulrush) weedkilling efficacy grade (bulrush [34]): 5 (weed kill ratio 90% or more, (practically complete withering)) | c (corn) effect on crop grade (corn [35]): 3 (weed kill ratio 40% or more, less than 70%) | K (Indian mallow) weedkilling efficacy grade (Indian mallow [36]): 0 (weed kill ratio 5% or less (practically no effect)) | O (catchweed) weedkilling efficacy grade (catchweed [37]): 2 (weed kill ratio 20% or more, less than 40%) | E (green foxtail) weedkilling efficacy grade (green foxtail [38]): 4 (weed kill ratio 70% or more, less than 90%) | B (bulrush) weedkilling efficacy grade (bulrush [39]): 5 (weed kill ratio 90% or more, (practically complete withering)) | L (redroot pigweed) weedkilling efficacy grade (redroot pigweed [40]): 4 (weed kill ratio 70% or more, less than 90%) | g (rapeseed) effect on crop grade (rapeseed [41]): 1 (weed kill ratio 5% or more, less than 20%) | F (barnyard grass) weedkilling efficacy grade (barnyard grass [42]): 3 (weed kill ratio 40% or more, less than 70%)
